Data reported in article PMC3260180, “FRET-Based Detection of M1 Muscarinic Acetylcholine Receptor Activation by Orthosteric and Allosteric Agonists” (PLoS ONE, 2012).

Key:
M1-cam5 AChR = biological target: T1, M1-cam5 AChR (Mus musculus, UniProt P12657, INS361[…]); assay: [3H]NMS competition binding in intact HEK293-M1-cam5 cell monolayers; details: [3H]NMS (~0.3 nM) competition, agonists 4°C for 4 h, antagonists 37°C for 45 min, mean ± s.e.m.
T1 construct: addition of the EYFP^F46L to the C-terminus of full length M1 mAChR; expressed in transfected cells; host or cells: HEK293 cells stably expressing M1-cam5 (HEK293-M1-cam5)
Experimental: Briefly, HEK293-M1-cam5 cells were seeded at a density of 75,000 cells/well in 24-well plates. […] […] After cell solubilization, SafeFluor scintillation fluid was added, and samples were counted on a scintillation counter.

M1-cam5 mAChR [1] = biological target: T2, M1-cam5 mAChR (Mus musculus, UniProt P12657, INS361[…]); assay: FRET measurements (FEYFP/FECFP) in HEK293-M1-cam5 cells; format: cell-based; set-up: addition of the EYFP^F46L to the C-terminus of full length M1 mAChR; expressed in transfected cells; host or cells: HEK293 cells stably expressing M1-cam5 (HEK293-M1-cam5); details: for maximal FRET decrease: maximally effective concentration (MCh 300 µM, arecoline 300 µM, pilocarpine 300 µM, 77-LH-28-1 10 µM, AC-42 30 µM), room temperature
Experimental: The experiments were performed at room temperature.
We also assessed the kinetics of MCh-mediated receptor conformational change with time-resolved determinations of the FRET signal recorded from single cells on activation of M1-cam5 mAChR with various concentrations of MCh.

M1-cam5 mAChR [2] = biological target: T2, M1-cam5 mAChR; assay: Receptor internalization by confocal microscopy in HEK293-M1-cam5 cells; format: cell-based; set-up: addition of the EYFP^F46L to the C-terminus of full length M1 mAChR; expressed in transfected cells; host or cells: HEK293 cells stably expressing M1-cam5 (HEK293-M1-cam5)
Experimental: Cells were seeded on coverslips coated with 100 µg/mL poly-D-lysine in PBS. When 70–80% confluency was reached, in some instances the cells were treated with various concentrations of agonists at 37°C and fixed with 4% paraformaldehyde. After a 5 min wash with PBS, the slides were mounted with Slowfade Gold/DAPI (Invitrogen, UK). The slides were examined using an Olympus FV500 confocal microscope, ECFPc and EYFP^F46L were excited via the 458 nm and 515 nm line of the argon laser and emissions were then collected at 480–495 nm and 535–565 nm, respectively. Optical sections (0.5 µm) were taken, and representative sections corresponding to the middle of the cells are presented. For each treatment, between 20 and 30 individual cells in three random fields of view were selected and examined. Fluorescence intensity of specific regions of interest (longitudinal axis) was quantified by using the Measure function of Image J software developed at the National Institutes of Health (http://rsb.info.nih.gov/ij/), as previously described. Briefly, relative quantification of intracellular (internalized) M1-cam5 was determined by measuring the amount of total fluorescence along the longitudinal axis corresponding to the intracellular space (average 4–18 ìm) excluding nucleus. Intracellular fluorescence in cells not treated with the agonist was considered to be basal fluorescence (assigned the value of 1). All other data are normalized to this basal fluorescence level.
Figure 4 Internalization characteristics of the M1-cam5 mAChR stably expressed in HEK293 cells. HEK293-M1-cam5 cells were treated with various concentration of MCh for 45 min (to assess the concentration-dependency of receptor internalization), or with MCh (300 µM) for 0–60 min (to assess the time-dependency of receptor internalization). Cellular distributions of M1-cam5 mAChR were monitored by confocal microscopy. For quantification of intracellular fluorescence at least […] of view were examined as described in the Methods section. […]

M1-cam5 = biological target: T3, M1-cam5 (Mus musculus, UniProt P12657, INS361[…]); assay: eGFP-PH biosensor translocation (phosphoinositide turnover) in HEK293-M1-cam5 cells; format: cell-based; details: 10 µM for 60 s
T3 construct: addition of the EYFP^F46L to the C-terminus of full length M1 mAChR; expressed in transfected cells; host or cells: HEK293 cells stably expressing M1-cam5 (HEK293-M1-cam5)

M3 mAChRs = assay: Total [3H]inositol phosphate accumulation in wild-type HEK293 cells; format: cell-based, human; details: Li+ (10 mM)
Experimental: (§1) HEK293-M1-cam5 and HEK293 cells were seeded at 100,000 cells/well in 24-well plates and incubated in fresh medium containing 2.5 µCi/mL [^3H]inositol for 48 h. The assay was performed as previously described.
As an index of PLC activation, agonist-stimulated accumulation of total [^3H]IPx was assessed in the presence of Li^+ (10 mM).

M1-cam5 mAChR [3] = biological target: T2, M1-cam5 mAChR; assay: Total [3H]inositol phosphate accumulation in HEK293-M1-cam5 cells; format: cell-based; set-up: addition of the EYFP^F46L to the C-terminus of full length M1 mAChR; expressed in transfected cells; host or cells: HEK293 cells stably expressing M1-cam5 (HEK293-M1-cam5); details: in presence of Li+ (10 mM)
Experimental: as §1
As an index of PLC activation, agonist-stimulated accumulation of total [^3H]IPx was assessed in the presence of Li^+ (10 mM). […] On removal of agonist, the eGFP-PH biosensor translocated back to the plasma membrane.

M1-cam5 mAChR [4] = biological target: T2, M1-cam5 mAChR; details: 1–300 µM for 5 min, serum-starved HEK293-M1-cam5 cells
Experimental: Proteins were visualized using ECL reagent from GE Healthcare (Chalfont St. Giles, UK).
Phosphoinositide turnover was assessed by monitoring the translocation of the eGFP-PH probe from the plasma membrane to the cytoplasm on addition of MCh (10 µM) for 60 s, followed by washout.

[5] = biological target: M1-3ic-ECFPc and M1-cterm-EYFP^F46L (Mus musculus, UniProt P12657, INS361[…]); assay: FRET control with coexpressed M1-3ic-ECFPc and M1-cterm-EYFPF46L in HEK293 cells; details: 300 µM
Experimental: Briefly, HEK293 cells grown on coverslips were mounted on a Nikon Eclipse TE2000-S inverted microscope (Nikon) using an “Attofluor” cell chamber (Molecular Probes, Leiden, The Netherlands) and continuously superfused with HBS (150 mM NaCl, 10 mM HEPES, 10 mM glucose, 2.5 mM KCl, 4 mM CaCl2, 2 mM MgCl2, pH 7.4). Cells were observed using an oil immersion 63× lens, a polychrome V (Till Photonics, Gräfelfing, Germany) for excitation, and a dual emission photometric system. In order to minimize photobleaching, illumination time was set to 10–40 ms, applied with a frequency of 10 Hz. Fluorescence was measured at 535±15 nm (F535) and 480±20 nm (F480) (beam splitter DCLP 505 nm, Chroma Technology, Rockingham, VT, USA) on excitation at 436±10 nm (beam splitter DCLP 460 nm, Chroma Technology). The signals were detected by avalanche photodiodes and digitized using an analog/digital converter (Digidata 1322A, Axon Instruments, Union City, CA, USA) and stored on a PC using Axoscope software (Axon Instruments). The experiments were performed at room temperature.
FRET was assessed using the ratio of normalized EYFP^F46L/ECFPc fluorescence intensities.
HEK-293 cells were transiently transfected with either (A) M1-cam5 or (B) two separate plasmids, one encoding M1 with a C-terminal YFP^F46L tag and the other encoding M1 with an ECFPc tag at the same third intracellular loop location as M1-cam5. […]

SMILES | pK B (apparent binding affinity, −log K B) (M1-cam5 AChR) | maximal FRET decrease (M1-cam5 mAChR [1]) [%] | M1-cam5 mAChR internalization (endocytosis) (M1-cam5 mAChR [2]) | other results
CCCCC1CCN(CCCN2C(=O)CCc3ccccc32)CC1 [77-LH-28-1] | 6.17±0.12 | 6.4±0.4 | – | –
CCCCC1CCN(CCCC(=O)c2ccccc2C)CC1 [AC-42] | 5.11±0.11 | 5.1±0.3 | resulted in receptor endocytosis | –
CC(=O)OC(C)C[N+](C)(C)C (stereo not drawn) [MCh, methacholine] | – | 9.8±0.4 | internalized in response to MCh in a concentration- and time-dependent manner | translocation of the eGFP-PH biosensor from the plasma membrane to the cytoplasm (M1-cam5): detectable translocation; EC50 right-shift of [3H]IPx accumulation relative to HEK293-M1-cam5 cells (M3 mAChRs): > 10 fold; [3H]IPx accumulation, maximal stimulation (M1-cam5 mAChR [3]; basal 3,781±1,792): 41,954±1,030 d.p.m. mg^−1 protein; increase in [3H]IPx accumulation, maximal stimulation (M1-cam5 mAChR [3]; over basal): 11 fold; ERK1/2 phosphorylation (M1-cam5 mAChR [4]): rapid increase; FRET response in cells coexpressing singly tagged receptors [5]: no FRET response
CN1[C@@H]2CC[C@H]1C[C@@H](OC(=O)C(CO)c1ccccc1)C2 (stereo partly drawn) [atropine] | – | – | – | effect alone on basal M1-cam5 FRET signal (M1-cam5 mAChR [1]): no effect; prevention of agonist-induced FRET change by pre-addition (M1-cam5 mAChR [1]): completely prevented; reversal of agonist-induced FRET change (M1-cam5 mAChR [1]): reversed
C[N+](C)(C)CC#CCN1CCCC1=O [oxo-M, oxotremorine-M] | 5.94±0.10 | – | resulted in receptor endocytosis | –
